Data set [1] is described as follows: Solubility of finasteride in Unistab S-69 (dosing by HPLC). Format: physicochemical. The conditions noted are these: Unistab S-69 (commercial mixture of farnesol and linalool), oil or lipid. As for the experimental part:
The second embodiment of the invention is to increase the encapsulation of finasteride by the addition of a new oil in the formulation's lipid core composition in which the solubility is greater than in caprylic and capric triglycerides. To this end, Unistab® S-69, a commercial mixture, was preferentially employed and consists of farnesol and linalool, in which the solubility of finasteride is about 90 mg/mL (dosing done by HPLC). Farnesol is a sesquiterpene alcohol and linalool is a terpenic alcohol, both found in various essential oils and insoluble in water but miscible with oils and other organic solvents such as acetone and ethanol. For being volatile, Unistab® S-69 was mixed with triglycerides in a ratio of 2.3: 1 (v/v) (Unistab® S-69: triglycerides). However, this proportion, considering the saturation of finasteride in Unistab® S-69, could be employed in the preparation of a formulation with a drug concentration of 2.0 mg/ml, due to the volatility of Unistab® S-69 and to the consequent loss of oil due to the draw caused by steam during the process of solvent evaporation under reduced pressure, a formulation was prepared with a finasteride concentration of 0.5 mg/ml, in order to ensure the nanometric features of the system. This formulation comprising a new lipid core represents the second embodiment of the invention.

Another data set has as its system men aged 18 to 41 years. Conditions: 1 mg daily, at the end of five years; cited from earlier work.

Consider 1 compound from patent US9895302B2, “Finasteride polymeric nanoparticle, aqueous suspension containing the same, composition for the treatment of alopecia, process of preparation of said composition, and its use” (Biolab Sanus Farmaceutica Ltda., priority 2012, dated 2018).

≈ marks a conversion by molar mass, not a printed value.

Broadly, the solubility is the dissolved amount per volume that the medium holds. As for `CC(C)(C)NC(=O)[C@H]1CC[C@H]2[C@@H]3CC[C@H]4NC(=O)C=C[C@]4(C)[C@H]3CC[C@]12C` [finasteride], the solubility in data set [1] is roughly 90 mg/mL (≈ 242 mM). Besides, the “Patients who developed baldness” value with men aged 18 to 41 years is 10%.
